{"source": "PubChem BioAssay AID1845210", "about": "(Molecular Pharmacology Branch, DTP, NCI, 2023)", "test_system": "NCI-H226 complex tumor spheroids, viability", "experiment": "Anticancer human tumor NCI-H226 cell line growth inhibition;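 as to all read-outs here: spheroids exposed to compound for 7 days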;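 as to viability, T/C: 100% = DMSO vehicle control viability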", "settings": "for IC50: curve of first compound; for viability, T/C: stronger effect = lower value", "in_short": "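Single agents and combinations were tested on spheroids built from tumor cells plus HUVEC and hMSC, at half-log dilutions starting at or near clinical Cmax, else 10 microM; final DMSO 0.25% (v/v).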", "data": [{"smiles": "Cc1sc2c(c1C)C(c1ccc(Cl)cc1)=NC(CC(=O)Nc1ccc(O)cc1)c1nnc(C)n1-2", "note": "(stereo not given) + CC[C@@]1(O)C(=O)OCc2c1cc1n(c2=O)Cc2cc3c(CN(C)C)c(O)ccc3nc2-1", "values": [{"measurement": "IC50", "setting": "second compound 0.003 µM", "result": 1.46, "unit": "µM"}, {"measurement": "IC50", "setting": "second compound 0.00949 µM", "result": 1.29, "unit": "µM"}, {"measurement": "IC50", "setting": "second compound 0.03 µM", "result": 0.431, "unit": "µM"}, {"measurement": "IC50", "setting": "second compound 0.0949 µM", "result": 0.094, "unit": "µM"}, {"measurement": "IC50", "setting": "second compound 0.3 µM", "result": "< 0.00949", "unit": "µM"}, {"measurement": "viability, T/C", "setting": "second compound 0.003 µM, first compound 0.00949 µM", "result": 71.9, "unit": "%"}, {"measurement": "viability, T/C", "setting": "second compound 0.003 µM, first compound 0.03 µM", "result": 68.5, "unit": "%"}, {"measurement": "viability, T/C", "setting": "second compound 0.003 µM, first compound 0.0949 µM", "result": 65.8, "unit": "%"}, {"measurement": "viability, T/C", "setting": "second compound 0.003 µM, first compound 0.3 µM", "result": 60.2, "unit": "%"}, {"measurement": "viability, T/C", "setting": "second compound 0.003 µM, first compound 0.949 µM", "result": 54, "unit": "%"}, {"measurement": "viability, T/C", "setting": "second compound 0.003 µM, first compound 3 µM", "result": 43.9, "unit": "%"}, {"measurement": "viability, T/C", "setting": "second compound 0.00949 µM, first compound 0.00949 µM", "result": 69.9, "unit": "%"}, {"measurement": "viability, T/C", "setting": "second compound 0.00949 µM, first compound 0.03 µM", "result": 62, "unit": "%"}, {"measurement": "viability, T/C", "setting": "second compound 0.00949 µM, first compound 0.0949 µM", "result": 68.9, "unit": "%"}, {"measurement": "viability, T/C", "setting": "second compound 0.00949 µM, first compound 0.3 µM", "result": 61, "unit": "%"}, {"measurement": "viability, T/C", "setting": "second compound 0.00949 µM, first compound 0.949 µM", "result": 50, "unit": "%"}, {"measurement": "viability, T/C", "setting": "second compound 0.00949 µM, first compound 3 µM", "result": 43, "unit": "%"}, {"measurement": "viability, T/C", "setting": "second compound 0.03 µM, first compound 0.00949 µM", "result": 63.9, "unit": "%"}, {"measurement": "viability, T/C", "setting": "second compound 0.03 µM, first compound 0.03 µM", "result": 57.9, "unit": "%"}, {"measurement": "viability, T/C", "setting": "second compound 0.03 µM, first compound 0.0949 µM", "result": 53.9, "unit": "%"}, {"measurement": "viability, T/C", "setting": "second compound 0.03 µM, first compound 0.3 µM", "result": 54.2, "unit": "%"}, {"measurement": "viability, T/C", "setting": "second compound 0.03 µM, first compound 0.949 µM", "result": 45.4, "unit": "%"}, {"measurement": "viability, T/C", "setting": "second compound 0.03 µM, first compound 3 µM", "result": 44.6, "unit": "%"}, {"measurement": "viability, T/C", "setting": "second compound 0.0949 µM, first compound 0.00949 µM", "result": 71.3, "unit": "%"}, {"measurement": "viability, T/C", "setting": "second compound 0.0949 µM, first compound 0.03 µM", "result": 52.9, "unit": "%"}, {"measurement": "viability, T/C", "setting": "second compound 0.0949 µM, first compound 0.0949 µM", "result": 50.5, "unit": "%"}, {"measurement": "viability, T/C", "setting": "second compound 0.0949 µM, first compound 0.3 µM", "result": 54.9, "unit": "%"}, {"measurement": "viability, T/C", "setting": "second compound 0.0949 µM, first compound 0.949 µM", "result": 43, "unit": "%"}, {"measurement": "viability, T/C", "setting": "second compound 0.0949 µM, first compound 3 µM", "result": 41.6, "unit": "%"}, {"measurement": "viability, T/C", "setting": "second compound 0.3 µM, first compound 0.00949 µM", "result": 50.3, "unit": "%"}, {"measurement": "viability, T/C", "setting": "second compound 0.3 µM, first compound 0.03 µM", "result": 45.8, "unit": "%"}, {"measurement": "viability, T/C", "setting": "second compound 0.3 µM, first compound 0.0949 µM", "result": 43.6, "unit": "%"}, {"measurement": "viability, T/C", "setting": "second compound 0.3 µM, first compound 0.3 µM", "result": 44.4, "unit": "%"}, {"measurement": "viability, T/C", "setting": "second compound 0.3 µM, first compound 0.949 µM", "result": 37, "unit": "%"}, {"measurement": "viability, T/C", "setting": "second compound 0.3 µM, first compound 3 µM", "result": 27.1, "unit": "%"}]}, {"smiles": "CC(C)n1c(=O)n(C)c2cnc3cc(F)c(-c4ccc(OCCCN5CCCCC5)nc4)cc3c21", "note": "+ Cn1nnc2c(C(N)=O)ncn2c1=O", "values": [{"measurement": "IC50", "setting": "second compound 1 µM", "result": 5.83, "unit": "µM"}, {"measurement": "IC50", "setting": "second compound 3.16 µM", "result": 5.92, "unit": "µM"}, {"measurement": "IC50", "setting": "second compound 10 µM", "result": 6, "unit": "µM"}, {"measurement": "IC50", "setting": "second compound 31.6 µM", "result": 5.72, "unit": "µM"}, {"measurement": "IC50", "setting": "second compound 100 µM", "result": "> 10", "unit": "µM"}, {"measurement": "viability, T/C", "setting": "second compound 1 µM, first compound 0.0316 µM", "result": 111, "unit": "%"}, {"measurement": "viability, T/C", "setting": "second compound 1 µM, first compound 0.1 µM", "result": 115, "unit": "%"}, {"measurement": "viability, T/C", "setting": "second compound 1 µM, first compound 0.316 µM", "result": 120, "unit": "%"}, {"measurement": "viability, T/C", "setting": "second compound 1 µM, first compound 1 µM", "result": 118, "unit": "%"}, {"measurement": "viability, T/C", "setting": "second compound 1 µM, first compound 3.16 µM", "result": 102, "unit": "%"}, {"measurement": "viability, T/C", "setting": "second compound 1 µM, first compound 10 µM", "result": 4.4, "unit": "%"}, {"measurement": "viability, T/C", "setting": "second compound 3.16 µM, first compound 0.0316 µM", "result": 112, "unit": "%"}, {"measurement": "viability, T/C", "setting": "second compound 3.16 µM, first compound 0.1 µM", "result": 113, "unit": "%"}, {"measurement": "viability, T/C", "setting": "second compound 3.16 µM, first compound 0.316 µM", "result": 114, "unit": "%"}, {"measurement": "viability, T/C", "setting": "second compound 3.16 µM, first compound 1 µM", "result": 102, "unit": "%"}, {"measurement": "viability, T/C", "setting": "second compound 3.16 µM, first compound 3.16 µM", "result": 104, "unit": "%"}, {"measurement": "viability, T/C", "setting": "second compound 3.16 µM, first compound 10 µM", "result": 4.91, "unit": "%"}, {"measurement": "viability, T/C", "setting": "second compound 10 µM, first compound 0.0316 µM", "result": 114, "unit": "%"}, {"measurement": "viability, T/C", "setting": "second compound 10 µM, first compound 0.1 µM", "result": 119, "unit": "%"}, {"measurement": "viability, T/C", "setting": "second compound 10 µM, first compound 0.316 µM", "result": 109, "unit": "%"}, {"measurement": "viability, T/C", "setting": "second compound 10 µM, first compound 1 µM", "result": 114, "unit": "%"}, {"measurement": "viability, T/C", "setting": "second compound 10 µM, first compound 3.16 µM", "result": 109, "unit": "%"}, {"measurement": "viability, T/C", "setting": "second compound 10 µM, first compound 10 µM", "result": 3.29, "unit": "%"}, {"measurement": "viability, T/C", "setting": "second compound 31.6 µM, first compound 0.0316 µM", "result": 117, "unit": "%"}, {"measurement": "viability, T/C", "setting": "second compound 31.6 µM, first compound 0.1 µM", "result": 108, "unit": "%"}, {"measurement": "viability, T/C", "setting": "second compound 31.6 µM, first compound 0.316 µM", "result": 110, "unit": "%"}, {"measurement": "viability, T/C", "setting": "second compound 31.6 µM, first compound 1 µM", "result": 99.4, "unit": "%"}, {"measurement": "viability, T/C", "setting": "second compound 31.6 µM, first compound 3.16 µM", "result": 99.9, "unit": "%"}, {"measurement": "viability, T/C", "setting": "second compound 31.6 µM, first compound 10 µM", "result": 3.07, "unit": "%"}, {"measurement": "viability, T/C", "setting": "second compound 100 µM, first compound 0.0316 µM", "result": 122, "unit": "%"}, {"measurement": "viability, T/C", "setting": "second compound 100 µM, first compound 0.1 µM", "result": 115, "unit": "%"}, {"measurement": "viability, T/C", "setting": "second compound 100 µM, first compound 0.316 µM", "result": 115, "unit": "%"}, {"measurement": "viability, T/C", "setting": "second compound 100 µM, first compound 1 µM", "result": 117, "unit": "%"}, {"measurement": "viability, T/C", "setting": "second compound 100 µM, first compound 3.16 µM", "result": 105, "unit": "%"}, {"measurement": "viability, T/C", "setting": "second compound 100 µM, first compound 10 µM", "result": 64, "unit": "%"}]}]}
